Experimental data from a melting point compilation (Tetko et al.; mined from patent text by program, amines drawn as free bases though some values may be those of a salt).

| SMILES | melting point |
| --- | --- |
| O=C(O)c1cn2c3c(cccc3c1=O)C1CCCCC12 (stereo not given) | 238 to 241 °C |
| Cc1ccccc1NNC(N)=S | 158 to 160 °C |
| C=CCCOc1ccc(C[C@H](NC(=O)OC(C)(C)C)C(=O)N[C@@H](CC(C)C)C(=O)N[C@@H](CC=C)C(=O)OC)cc1 | 166 to 168 °C |
| CNN(NC)C(=O)Nc1cccc2c1C(=O)c1c-2n[nH]c1-c1ccco1 | 202 °C |
| CN1CC(N(C)[C@@H]2c3cc(C#N)ccc3OC(C)(C)[C@H]2O)=CC1=O (relative stereo) | 266 to 269 °C |
| CN(CCCO)CC1(SSC2(CN(C)CCCO)CCCCC2)CCCCC1 | 65 to 66 °C |
| CC(=O)[C@@H]1CC(=S)N(C(C)=O)C1 | 49 to 51 °C |
| NC(=O)N1CCN2c3ccccc3Cn3cccc3C2C1 (stereo not given) | 175 to 177 °C |
| OCCCNc1ccnc(Cl)n1 | 113 to 114 °C |
| Cn1nc(N)c2sc3c(Cl)cccc3c21 | 239 to 241 °C |
| COc1cc2oc(=O)c3c(c2cc1OC)CCN(Cc1ccc(Cl)cc1)C3 | 173 to 175 °C |
| CCCn1c(=O)c2c(nc(C=Cc3ccc(S(=O)(=O)O)cc3)n2C)n(CCC)c1=O | > 270 °C |
| CCOC(CNC1=Nc2sc(CC)cc2C(c2ccccc2Cl)=NC1)OCC | 124 to 127 °C |
| OCCCc1cnoc1-c1ccc(Cl)c(Cl)c1 | 66 to 67 °C |
| CCOC(=O)c1c(C(F)(F)F)nc(C(F)(F)F)c(C(=O)OCC)c1OC | 46.5 to 47.5 °C |
| CN1CCC2(c3cccc(O)c3)CCCC2C1 (stereo not given) | 151 to 153 °C |
| Cc1ccc(S(=O)(=O)Cl)c2c1CCN(C(=O)C(F)(F)F)C2 | 152 to 153 °C |
| CC(C)(C)c1cc(C(=O)Oc2ccc(C(=O)c3cc(C(C)(C)C)c(O)c(C(C)(C)C)c3)c(O)c2)cc(C(C)(C)C)c1O | 120 to 122 °C |
| CC(C)(C)OC(=O)c1cc(Cl)nc(Cl)c1 | 79 to 81 °C |
| CC(=O)Nc1ccn(C2OC(COC(C)=O)C(OC(C)=O)C2O[N+](=O)[O-])c(=O)n1 (stereo not given) | 160 to 161 °C |
| COC(=O)c1cc(OC)cc(OC)c1N | 93 to 95 °C |
| CCOC(=O)Nc1cc(OC(=O)OC)c(Cl)cc1F | 144 to 147 °C |
| c1cc(NC2=NCCS2)c2occc2c1 | 143 to 145 °C |
| CN1CCC(c2c[nH]c3ccc(NS(=O)(=O)c4ccc(I)cc4)cc23)CC1 | > 250 °C |
| O=C1c2c(O)ccc(O)c2C(=O)c2c(NCCNCCO)ccc(NCCNCCO)c21 | 175 to 177 °C |
| CN(C)CC1(c2cccc(C(F)(F)F)c2)CCN(C(=O)CN2CCN(c3ccccc3)CC2)CC1 | 123 to 124 °C |
| COc1ccc(-c2ccc(C(C)=NO)cc2)cc1 | 82 to 84 °C |

| SMILES | melting point |
| --- | --- |
| CCOC(=O)Cn1nnnc1S(=O)(=O)c1ccc(C)cc1 | 98 to 100 °C |
| Cn1ncc2c1SSSSS2 | 57 to 60 °C |
| CC(C)(C)OC(=O)N1CCCC(c2ncc(-c3cnc(-c4ccccc4)nc3)[nH]2)C1 (stereo not given) | 130 °C |
| CC12CCC(C(=O)N(CCCCN3CCN(c4ncccn4)CC3)C1=O)C2(C)C (stereo not given) | 92 to 94 °C |
| Nc1cccnc1C(=O)NO | 131 to 133 °C |
| CCOC(=O)C1CCN(c2nc(COc3ccc(C=O)cc3OC)c(C)s2)CC1 | 97 to 98 °C |
| CN(C)CCCOc1ccccc1CC(=O)O | 98 °C |
| CNC(=O)c1ncc2[nH]c3ccc(N)cc3c2c1C | 281 to 285 °C |
| CC(C)(C)c1ccc(OCCOc2ccccc2N)c(N)c1 | 148 to 150 °C |
| Cc1ccc(Br)c(S(=O)(=O)C(F)(F)F)c1 | 69 °C |
| Nc1ccc(CN2CCN(c3ccc(F)cc3)CC2)cc1 | 130 to 132 °C |
| Cc1oncc1C(=O)N1CCOCC1 | 42 to 44 °C |
| C#Cc1ccc2c(c1)C(c1ccccc1F)=NCc1c(C(=O)NC)ncn1-2 | 235 to 236 °C |
| C#CCOCc1cc(-c2ccc(C(F)(F)F)n(C)c2=O)c(F)cc1Cl | 99 to 101 °C |
| CCOC(=O)C=C(C)c1ccc(-c2ccc(F)cc2F)cc1 | 54 to 56 °C |
| CCS(=O)c1ccc(N2CC(CNC(C)=S)OC2=O)cc1F (stereo not given) | 138 to 139 °C |
| Nc1cc2c(cc1F)OC(=O)CN2 | > 250 °C |
| Cn1cc(-c2cccc([N+](=O)[O-])c2)c(=O)c(-c2cccc(C(F)(F)F)c2)c1 | 209 to 211 °C |
| N#CCc1cccc([N+](=O)[O-])c1[N+](=O)[O-] | 88 to 90 °C |
| CC(=O)Nc1ccc2c(c1)CC(=O)N2CCN1CCN(Cc2ccccc2)CC1 | 145 to 147 °C |
| OC(Nc1cccc(C(F)(F)F)c1)c1cccnc1 (stereo not given) | 102 °C |
| CCOC(=O)C(C)Sc1ncnc2c(O)n(C)nc12 (stereo not given) | 127 to 131 °C |
| COc1cccc([C@H]2O[C@H](CC(=O)Nc3cc4c(c(C(=O)O)c3)CCCC4)C(=O)N(CC(C)(C)CO)c3ccc(Cl)cc32)c1OC | 178 to 179 °C |
| Cc1cc(C)cc(CCCn2c(=O)[nH]c3cc(Cl)cc(Cl)c3c2=O)c1 | 205 to 208 °C |
| O=C(O)CCC(=NO)c1ccc(-n2cccn2)cc1 | 128 to 130 °C |
| CCS(=O)(=O)/C=C/c1ccc2[nH]cc(C3CCN(C)CC3)c2c1 | 98 to 102 °C |

Next, values leading:

| melting point | SMILES |
| --- | --- |
| 126 to 128 °C | Cc1cc(Cc2cnc(NCCCCc3ncc(Br)cc3C)[nH]c2=O)cnc1C |
| 55 to 56 °C | CCCc1c(OCCCOc2ccc(C(=O)OCCCN(C)C)cc2F)ccc(C(C)=O)c1O |
| 199 °C | COc1cccc(OC)c1NC(=O)c1ccc2nc(N[C@@H]3CCc4ccccc43)ccc2c1 |
| 129 to 130 °C | Cc1ccc(CC(NCc2ccc(O)cc2)c2ccccc2)cc1 (stereo not given) |
| 181 to 185 °C | COc1ccc(Nc2ccc(Nc3nc(C)nc4cc(-c5ccccc5)sc34)cc2)cc1 |
| 175 to 176 °C | CC/C(=C(\c1ccc(/C=C/C(=O)O)cc1)c1ccc(OC(=O)c2cccs2)cc1)c1ccccc1 |
| 118 to 120 °C | COC(=O)CCCCc1ccc(NC(=O)N(CCO)C2CCN(Cc3ccccc3)CC2)cc1 |
| 77 °C | COC(=O)CCCCc1cc2cc(C(F)(F)F)ccc2n1S(=O)(=O)c1cccc(C(C)(C)C)c1 |
| 180 to 186 °C | O=C(O)CCCC(=O)N1CCC(C2c3ccccc3C=Cc3ccccc32)CC1 |
| 122 to 124 °C | COC(=O)c1cc(Nc2ccccc2)c(Nc2ccc(OC)cc2)cc1C(=O)OC |
| 281 to 283 °C | CS(=O)(=O)c1ccc(-c2[nH]c3ccc(Cl)cc3c2-c2ccccc2)cc1 |
| 210 to 215 °C | C=CC=CC(=O)Nc1cc2c(Nc3cccc(Br)c3)ncnc2cn1 |
| 172 to 175 °C | O=C(CCCCl)c1ccc2c(c1)Cc1cc(C(=O)CCCCl)ccc1-2 |
| > 250 °C | Nc1cc2nc(-c3ccccc3)nn2cc1F |
| 139 to 140 °C | CC(=O)SCC(Cc1ccccc1)C(=O)Nc1ccc(C(=O)OCc2ccccc2)cc1 (stereo not given) |
| 188 °C | Cc1cc2c(=O)n(CCN3CCC(Nc4nc5ccccc5n4Cc4ccc(F)cc4)CC3)c(=O)[nH]c2s1 |
| 334 to 335 °C | NC(=O)c1nc(-c2cccnc2)nc2c1[nH]c(=O)n2Cc1ccccc1 |
| 141 to 143 °C | O=C(NC(CO)CO)c1ccccc1-c1ccc(C(F)(F)F)cc1 |
| 283 to 287 °C | COC(=O)c1cccc2c1CN(c1c(F)cc3c(=O)c(C(=O)O)cn(-c4ccc(F)cc4)c3c1F)C2 |
| 66 to 68 °C | Cc1cc(OCc2ccccc2)c(C)c([N+](=O)[O-])c1 |
| 174 °C | O=C(Nc1ccc(N2CCCC2=O)cc1)OCc1ccccc1 |
| 165 to 170 °C | O=C(Nc1cccc(-c2ccnc3c(C(=O)c4cccs4)cnn23)c1)c1cn[nH]c1 |
| 145 °C | CC(=O)[C@H]1C[C@H](C(=O)OC(C)(C)C)N(C(=O)CNC(=O)Nc2cccc(C(=O)O)c2)[C@@H]1c1ccccc1 (racemic) |
| 199 to 200 °C | COC(=O)C(=O)c1cn(C)c2cc(-c3ccc(C(F)(F)F)cc3)ccc12 |

| melting point | SMILES |
| --- | --- |
| 137 to 142 °C | Cc1cc(OC/C=C(\c2ccc(C#CCN3CCOCC3)cc2)c2ccc(S(C)=O)cc2)ccc1OCC(=O)O (stereo not given) |
| 70 to 72.5 °C | COc1ccc(C(O)CSCc2ccncc2)cc1 (stereo not given) |
| 211 °C | CN(C)S(=O)(=O)N[C@@H](Cc1ccc(Nc2nccc3cnccc23)cc1)C(=O)O |
| 241 to 245 °C | CCCc1nc(CC)c(C=O)n1Cc1ccc(-c2ccccc2-c2c(O)c(=O)c2=O)cc1 |
| 108 to 109 °C | CCCc1c(OCCCCCCc2ccc(CCCCC(=O)O)cc2CCC(=O)O)ccc2c1OCCC2=O |
| 83 to 86 °C | OC(CCc1cccnc1)COc1ccc(-c2ccccc2)cc1 (stereo not given) |
| 79 to 81 °C | CCOc1cc(OCCCc2cn(-c3cc(C(F)(F)F)ccn3)nc2OCC)ccc1CCC(=O)OC |
| 145 °C | COc1cc(Nc2nccc(-c3cccc(Br)c3)n2)cc(OC)c1OC |
| 110 to 112 °C | COc1ccc(N2CCN(CC(O)COc3ccc(OCc4ccccc4)cc3)CC2)c(OC)c1 (stereo not given) |
| 169 to 171 °C | O=c1c(CCCCBr)c(O)c2cccnc2n1-c1ccccc1 |
| 115 to 116 °C | CN1C(=O)SC(Cc2cn(-c3ccccc3)nc2OCc2ccccc2)C1=O (stereo not given) |
| 175 to 176 °C | CC(C)C[C@H](NC(=O)OCC1c2ccccc2-c2ccccc21)C(=O)N[C@H]1CCOC1=O |
| 190 to 194 °C | CCCCc1nc2c(N)nc3ccc(OCc4ccccc4)cc3c2n1CCCCNC(=O)Nc1ccccc1 |
| 170 to 172 °C | Cn1ccnc1NC(=S)Nc1ccccc1 |
| 195 to 198 °C | Cc1nc2cccc(OCC(C)(C)NC(=O)c3ccncc3)c2c(N)c1C(=O)O |
| 62 to 64 °C | CCCCCCCCCCCCCCOc1ccc(CN)cc1 |
| 120 to 121 °C | Cc1ccccc1N1CCc2c(N(C)C)nc3c(C)cccc3c21 |
| 75 to 76 °C | O=C(O)CCCOc1ccccc1OCc1ccccc1 |
| 229 to 230 °C | CC(C)n1nc(-c2c(-c3ccccc3)nn3cccc(O)c23)ccc1=O |
| 190 to 191 °C | CCNc1nc2c(C)sc(C(=O)OC)c2n1Cc1ccc(-c2ccccc2C#N)cc1 |
| 148 to 149 °C | Cn1cccc1C(=O)Nc1ccc(-n2nc(C(F)(F)F)cc2C(F)(F)F)cc1 |
| 223 to 224 °C | Cc1ccc(-c2ccc3c(c2)C=C(C(=O)Nc2ccc(CN4CCC(O)CC4)cc2)CC3)cc1 |
| 187 to 188 °C | Clc1cc(Cl)c2cccc3c2c1N=C3NCCCCn1ccnc1 |
